{"source": "patent US20030086920A1", "about": "“Use of des-Aspartate-angiotensin I as an agent for the treatment and prevention of glomerulosclerosis and renal failure” (priority 2000, published 2003)", "key": {"[1]": {"system": "ablation nephropathic rats", "experiment": "Proteinuria in 5/6 nephrectomized (ablation nephropathic) rats", "format": "in vivo, Sprague Dawley rats", "settings": "for 24-hour urinary excretion of protein: Weeks 9-16 post 5/6 nephrectomy, 762 nmoles/kg/day oral for 8 weeks, mean ± SEM", "procedure": "Five-sixths nephrectomy was carried out as described by Morrison (11). Briefly, each animal was anaesthetized with 7% w/v chloral hydrate (0.4 g/kg, i.p.). An incision was made in the ventral abdominal wall to access the kidneys. Right nephrectomy was performed and the cranial and caudal third of the left kidney were cut off. Tissue adhesive (Histoccryl, B. Braun) was used to seal the cut ends of the left kidney and prevent bleeding. In this way 5/6 of the renal parenchyma was removed. This model results in focal and segmental glomerulosclerosis, resembling renal lesions in humans like oligomeganephronia, membranous nephropathy, minimal change nephritis, proliferative glomerulonephritis, analgesic nephropathy, diabetes mellitus, unilateral nephrectomy, cortical necrosis, and unilateral renal agenesis (9).\nFollowing the operation, each animal was placed in a metabolic cage for 24 hours once a week for a duration of 8 weeks. The 24-hour urine output and the concentration of protein in the urine were measured. After the 8th week, the animals were randomly divided into two groups (8 animals per group). Animals in one of the group (the treatment group) were orally administered 762 nmoles/kg/day of des-Asp-angiotensin I dissolved in 0.5 ml of saline via a 1-ml syringe with a blunted needle for a period of 8 weeks. The dose of 762 nmoles/kg/day was calculated based on the maximum effective oral anti-cardiac hypertrophic dose (250 nmole per rat of average weight of 328 g) in the original parent patent. Animals in the other group (the control group) were similarly administered with 0.5 ml of saline. Weekly measurement of 24-hour urine output and the concentration of protein in the urine in these animals were carried out for another 8 weeks. The protocol was designed based on our preliminary observation that urinary excretion of protein in the 5/6 nephrectomized rats commenced to increase above the normal value in 7th to 8th week post nephrectomy. A repeat of the experiment with 12 nephrectomized rats per group was carried out.\nData were expressed as mean±SEM. […]"}, "cardiac hypertrophy": {"system": "cardiac hypertrophy", "settings": "rat of average weight of 328 g, from the original parent patent; cited from earlier work"}}}
{"substance": "des-Aspartate angiotensin I [des-Asp-angiotensin I]", "values": [{"measurement": "24-hour urinary excretion of protein", "setting": "[1]; 8 rats, first experiment, saline control 37.2 ± 2.3, p = 0.024", "result": "*28.7 ± 2.5 mg"}, {"measurement": "24-hour urinary excretion of protein", "setting": "[1]; 12 rats, repeat experiment, saline control 51.7 ± 4.7, p = 0.048", "result": "*39.6 ± 3.3 mg"}, {"measurement": "Anti-proteinuric action (progressive development of proteinuria)", "setting": "[1]; ablation nephropathic rats, oral dose of 762 nmoles/kg/day", "result": "effective agent in attenuating the progressive development of proteinuria"}, {"measurement": "Maximum effective oral anti-cardiac hypertrophic dose", "setting": "cardiac hypertrophy", "result": 250, "unit": "nmole per rat"}]}
